What follows are molecules tested against T1, NIK (Homo sapiens, UniProt Q99558) (assay: homogenous time resolved fluorescence (HTRF) assay for NIK Ki measurement). Conditions: truncated NIK (catalytic domain only), autophosphorylation; 10 nM enzyme; 20, 100, 200 or 500 μM ATP; room temperature, 2 hours; read-out: Ki activity in the homogenous time resolved fluorescence (HTRF) assay for NIK.
T1 construct: Both assays utilize a truncated form of NIK containing only the catalytic domain; made in house; host or cells: baculovirus expression system (insect cells implied)
T1 sequence (Q99558 400-655 limits assumed): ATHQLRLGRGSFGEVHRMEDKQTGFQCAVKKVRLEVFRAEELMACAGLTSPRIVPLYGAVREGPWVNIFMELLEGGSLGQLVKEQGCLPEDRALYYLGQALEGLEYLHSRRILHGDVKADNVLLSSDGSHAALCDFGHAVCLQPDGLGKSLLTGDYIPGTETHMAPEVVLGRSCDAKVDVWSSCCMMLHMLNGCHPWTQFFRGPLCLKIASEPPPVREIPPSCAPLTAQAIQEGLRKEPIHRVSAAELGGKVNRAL
Assay type: biochemical
Description: Two formats of biochemical assays are implemented: (1) chemiluminescent (CL) assay for NIK IC50 determination; (2) homogenous time resolved fluorescence (HTRF) assay for NIK Ki measurement. […] The NIK proteins are purified with baculovirus expression system and further biotinylated with N-hydroxysuccinamide biotin ester (Sigma). […] The reaction mixtures are then immobilized on a Streptavidin-coated plate (Pierce). […] For the HTRF assay, 10 nM of enzyme are incubated with compounds in the presence of 20, 100, 200, or 500 μM of ATP in a buffer with 20 mM of Hepes pH7.5, 20 mM of MgCl2, 0.2% of Tween 20 and 1 mM of DTT at room temperature for 2 hours.
With `CC(O)(C#Cc1ccc2c(c1)N(c1nc(N)ncc1Cl)CC21CCOC1)c1nccs1` (racemic) [Example 198, 4-(1′-(2-Amino-5-chloro-4-pyrimidinyl)-1′,2′,4,5-tetrahydrospiro[furan-3,3′-indol]-6′-yl)-2-(1,3-thiazol-2-yl)-3-butyn-2-ol] the Ki was < 1000 nM.
`Nc1ncc(Cl)c(N2CC3(CS(=O)(=O)C3)c3ccc(C#CC4(O)CCCC4)cc32)n1` [Example 212, 1-((1-(2-Amino-5-chloro-4-pyrimidinyl)-1′,1′-dioxido-1,2-dihydrospiro[indole-3,3′-thietan]-6-yl)ethynyl)cyclopentanol] was tested, and the Ki was < 1000 nM.
With `COCC1(C)CN(c2nc(N)nc3[nH]cnc23)c2cc(C#CC3(O)CCCC3)ccc21` (single isomer, unassigned) [Example 70, 1-(((3R*)-1-(2-amino-9H-purin-6-yl)-3-(methoxymethyl)-3-methyl-2,3-dihydro-1H-indol-6-yl)ethynyl)cyclopentanol] the Ki was < 1000 nM.
With `COCCOCC1(C)CN(c2nc(N)nc3[nH]cnc23)c2cc(C#CC3(O)CCCC3)ccc21` (centres unmarked) [Example 73, 1-((1-(2-amino-9H-purin-6-yl)-3-((2-methoxyethoxy)methyl)-3-methyl-2,3-dihydro-1H-indol-6-yl)ethynyl)cyclopentanol] the Ki was < 1000 nM.
For `CNc1ncc2c(n1)-c1c(nc3ccc(C#CC4(O)CCCC4)cn13)CCC2` [Example 251, 1-((2-(methylamino)-6,7-dihydro-5H-pyrido[1″,2″:1′,2′]imidazo[4′,5′:6,7]-cyclohepta[1,2-d]pyrimidin-11-yl)ethynyl)cyclopentanol], the Ki was 1000 to 30000 nM.
`CC(O)(C#Cc1ccc2c(c1)N(c1ccnc(N)n1)CC2)c1sccc1Cl` (centres unmarked) [Example 284, 4-(1-(2-Amino-4-pyrimidinyl)-2,3-dihydro-1H-indol-6-yl)-2-(3-chloro-2-thienyl)-3-butyn-2-ol] was tested, and the Ki was < 1000 nM.
`CC(O)(C#Cc1ccc2c(c1)N(c1ccnc(N)n1)CC2)c1ccncc1` (centres unmarked) [Example 272, 4-(1-(2-Amino-4-pyrimidinyl)-2,3-dihydro-1H-indol-6-yl)-2-(4-pyridinyl)-3-butyn-2-ol] gave a Ki of 1000 to 30000 nM.
In the case of `Cc1cc([C@](C)(O)C#Cc2ccc3c(c2)N(c2nc(N)ncc2Cl)CC3)no1` (single isomer, unassigned) [Example 25], the Ki is reported as < 1000 nM.
Work on `Cc1cc([C@@](C)(O)C#Cc2ccc3c(c2)N(c2nc(N)ncc2Cl)CC3)no1` (single isomer, unassigned) [Example 24] yielded a Ki of 1000 to 30000 nM.
With `C[C@@](O)(C#Cc1ccc2c(c1)N(c1nc(N)ncc1Cl)CC21CCCC1)c1nccs1` [Example 318] the Ki was < 1000 nM.
For `Cc1cc(C(C)(O)C#Cc2ccc3[nH]c(C)c(-c4ccncc4)c3c2)no1` (centres unmarked) [Example 104, 4-(2-methyl-3-(pyridin-4-yl)-1H-indol-5-yl)-2-(5-methylisoxazol-3-yl)but-3-yn-2-ol], the Ki was < 1000 nM.
For `Cc1cc(C(C)(O)C#Cc2ccc3c(c2)N(c2nc(N)ncc2Cl)C[C@@]32CCOC2)no1` (single isomer, unassigned) [Example 203, 4-((3R*)-1′-(2-Amino-5-chloro-4-pyrimidinyl)-1′,2′,4,5-tetrahydrospiro[furan-3,3′-indol]-6′-yl)-2-(5-methyl-3-isoxazolyl)-3-butyn-2-ol], the Ki was < 1000 nM.
`Cc1ncc2c(n1)-c1c([nH]c3ccc(C#CC(C)(C)O)cc13)CCC2` [Example 242, 2-Methyl-4-(2-methyl-5,6,7,8-tetrahydropyrimido[4′,′:3,4]cyclohepta[1,2-b]indol-1′-yl)-3-butyn-2-ol] was tested, and the Ki was 1000 to 30000 nM.
With `OC1(C#Cc2ccc3[nH]nc(-c4ccns4)c3c2)CCCC1` [Example 97, 1-(2-(3-(isothiazol-5-yl)-1H-indazol-5-yl)ethynyl)cyclopentanol] the Ki was < 1000 nM.
`CC(O)(C#Cc1ccc2[nH]cc(-c3cnco3)c2c1)c1nccs1` (centres unmarked) [Example 106, 4-(3-(oxazol-5-yl)-1H-indol-5-yl)-2-(thiazol-2-yl)but-3-yn-2-ol] was tested, and the Ki was < 1000 nM.
`CC(O)(C#Cc1ccc2c(c1)N(c1nc(N)ncc1Cl)CC2(C)C)c1ccccn1` (centres unmarked) [Example 304, 4-(1-(2-Amino-5-chloro-4-pyrimidinyl)-3,3-dimethyl-2,3-dihydro-1H-indol-6-yl)-2-(2-pyridinyl)-3-Butyn-2-ol] was tested, and the Ki was < 1000 nM.
In the case of `CC(O)(C#Cc1ccc2c(c1)N(c1ncncn1)CC21CCOCC1)c1nccs1` (centres unmarked) [Example 37, 2-(1,3-thiazol-2-yl)-4-(1-(1,3,5-triazin-2-yl)-1,2,2′,3′,5′,6′-hexahydrospiro[indole-3,4′-pyran]-6-yl)-3-butyn-2-ol], the Ki is reported as < 1000 nM.
`CC(O)(C#Cc1ccc2c(c1)N(c1ccnc(N)n1)CC2)c1cccs1` (centres unmarked) [Example 273, 4-(1-(2-Amino-4-pyrimidinyl)-2,3-dihydro-1H-indol-6-yl)-2-(2-thienyl)-3-butyn-2-ol] was tested, and the Ki was < 1000 nM.
In the case of `Cc1cc([C@](C)(O)C#Cc2ccc(F)c(Nc3nc(N)ncc3Cl)c2)no1` [Example 176, (R)-4-(3-(2-Amino-5-chloropyrimidin-4-ylamino)-4-fluorophenyl)-2-(5-methylisoxazol-3-yl)but-3-yn-2-ol], the Ki is reported as < 1000 nM.
For `Nc1ncc(F)c(-c2cn(CC3CCOC3)c3ccc(C#CC4(O)CCCC4)cc23)n1` (centres unmarked) [Example 135, 1-(2-(3-(2-amino-5-fluoropyrimidin-4-yl)-1-((tetrahydrofuran-3-yl)methyl)-1H-indol-5-yl)ethynyl)cyclopentanol], the Ki was < 1000 nM.
For `COCCNC(=O)c1[nH]c2ccc(C#CC(C)(O)c3nccs3)cc2c1-c1ccncn1` (centres unmarked) [Example 89, 5-(3-hydroxy-3-(thiazol-2-yl)but-1-ynyl)-N-(2-methoxyethyl)-3-(pyrimidin-4-yl)-1H-indole-2-carboxamide], the Ki was < 1000 nM.
For `Nc1ncc2c(n1)-c1c([nH]c3ccc(C#CC4(O)CCCC4)cc13)C(=O)NC2` [Example 243, 2-Amino-11-((1-hydroxycyclopentyl)ethynyl)-5,8-dihydropyrimido[4′,′:5,6]azepino[3,4-b]indol-7(6H)-one], the Ki was < 1000 nM.
`C[C@@](O)(C#Cc1ccc2c(c1)N(c1nc(N)ncc1Cl)C[C@@]21CCOC1)c1nccs1` (relative stereo) [Example 200, (2R)-4-((3R*)-1′-(2-Amino-5-chloro-4-pyrimidinyl)-1′,2′,4,5-tetrahydrospiro[furan-3,3′-indol]-6′-yl)-2-(1,3-thiazol-2-yl)-3-butyn-2-ol] was tested, and the Ki was < 1000 nM.
For `C[C@@](O)(C#Cc1ccc2c(c1)N(c1nc(N)ncc1Cl)CC21CCS(=O)(=O)CC1)c1nccs1` [Example 218, (2R)-4-(1-(2-Amino-5-chloro-4-pyrimidinyl)-1′,1′-dioxido-1,2,2′,3′,5′,6′-hexahydrospiro[indole-3,4′-thiopyran]-6-yl)-2-(1,3-thiazol-2-yl)-3-butyn-2-ol], the Ki was < 1000 nM.
`O=C(NCCCN1CCOCC1)c1cnccc1-n1ccc2ccc(C#CC3(O)CCCC3)cc21` [Example 254, 4-(6-((1-Hydroxycyclopentyl)ethynyl)-1H-indol-1-yl)-N-(3-(4-morpholinyl)propyl)-3-pyridinecarboxamide] gave a Ki of 1000 to 30000 nM.
`CC(C)C(C)(O)C#Cc1ccc2c(c1)N(c1ccnc(N)n1)CC2` (centres unmarked) [Example 266, 1-(1-(2-Amino-4-pyrimidinyl)-2,3-dihydro-1H-indol-6-yl)-3,4-dimethyl-1-pentyn-3-ol] gave a Ki of 1000 to 30000 nM.

From patent US20110086834A1, “ALKYNYL ALCOHOLS AS KINASE INHIBITORS” (AMGEN INC., priority 2008, published 2011)
